{"source": "the kinase profiling compilation of Christmann-Franck et al. (2016)", "experiment_in_all_cases": "KINOMEscan competition binding", "settings_in_all_cases": "compound 1.0 µM", "key": {"[1]": {"biological_target": "PTK2 (human) (UniProt Q05397)"}, "[2]": {"biological_target": "CDK16 (human) (UniProt Q00536)"}, "[3]": {"biological_target": "CSK (human) (UniProt P41240)", "sequence (P41240 whole entry, looked up)": "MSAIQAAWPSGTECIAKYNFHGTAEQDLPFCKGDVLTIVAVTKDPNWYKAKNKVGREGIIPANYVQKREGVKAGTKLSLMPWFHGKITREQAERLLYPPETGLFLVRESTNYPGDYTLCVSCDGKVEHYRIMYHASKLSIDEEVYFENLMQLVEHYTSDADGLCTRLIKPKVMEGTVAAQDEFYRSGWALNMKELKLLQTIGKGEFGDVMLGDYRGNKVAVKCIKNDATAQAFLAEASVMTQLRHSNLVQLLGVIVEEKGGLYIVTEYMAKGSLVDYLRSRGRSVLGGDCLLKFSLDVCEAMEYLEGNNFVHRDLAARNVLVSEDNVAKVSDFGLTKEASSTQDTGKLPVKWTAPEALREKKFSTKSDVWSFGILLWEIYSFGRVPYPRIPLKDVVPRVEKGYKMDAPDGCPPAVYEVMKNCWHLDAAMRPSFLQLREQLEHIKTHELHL"}, "[4]": {"biological_target": "CDKL2 (human) (UniProt Q92772)"}, "[5]": {"biological_target": "BRSK2 (human) (UniProt Q8IWQ3)"}, "[6]": {"biological_target": "CHEK2 (human) (UniProt O96017)"}, "[7]": {"biological_target": "RPS6KA5 KD1 (human) (UniProt O75582)"}, "[8]": {"biological_target": "ZAP70 (human) (UniProt P43403)"}, "[9]": {"biological_target": "YES1 (human) (UniProt P07947)"}, "[10]": {"biological_target": "MAPK9 (human) (UniProt P45984)"}, "[11]": {"biological_target": "ALK (human) (UniProt Q9UM73)"}, "[12]": {"biological_target": "PAK4 (human) (UniProt O96013)"}, "[13]": {"biological_target": "CSNK1G1 (human) (UniProt Q9HCP0)"}, "[14]": {"biological_target": "CDK13 (human) (UniProt Q14004)"}, "[15]": {"biological_target": "TGFBR1 (human) (UniProt P36897)", "sequence (P36897 whole entry, looked up)": "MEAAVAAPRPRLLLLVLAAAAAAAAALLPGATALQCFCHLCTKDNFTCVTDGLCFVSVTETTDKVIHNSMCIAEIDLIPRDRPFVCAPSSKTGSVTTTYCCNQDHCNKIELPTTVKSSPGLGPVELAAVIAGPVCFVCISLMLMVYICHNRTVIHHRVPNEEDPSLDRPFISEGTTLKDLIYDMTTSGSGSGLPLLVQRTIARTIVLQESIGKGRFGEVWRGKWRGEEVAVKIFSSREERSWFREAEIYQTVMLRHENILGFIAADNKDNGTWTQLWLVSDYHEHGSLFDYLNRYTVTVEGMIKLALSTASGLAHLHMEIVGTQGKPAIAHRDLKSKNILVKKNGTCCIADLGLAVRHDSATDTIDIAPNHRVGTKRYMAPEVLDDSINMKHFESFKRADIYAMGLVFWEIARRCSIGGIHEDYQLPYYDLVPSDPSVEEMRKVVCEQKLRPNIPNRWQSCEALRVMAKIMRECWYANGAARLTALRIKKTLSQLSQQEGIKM"}, "[16]": {"biological_target": "ACVR2B (human) (UniProt Q13705)"}, "[17]": {"biological_target": "ITK (human) (UniProt Q08881)", "sequence (Q08881 whole entry, looked up)": "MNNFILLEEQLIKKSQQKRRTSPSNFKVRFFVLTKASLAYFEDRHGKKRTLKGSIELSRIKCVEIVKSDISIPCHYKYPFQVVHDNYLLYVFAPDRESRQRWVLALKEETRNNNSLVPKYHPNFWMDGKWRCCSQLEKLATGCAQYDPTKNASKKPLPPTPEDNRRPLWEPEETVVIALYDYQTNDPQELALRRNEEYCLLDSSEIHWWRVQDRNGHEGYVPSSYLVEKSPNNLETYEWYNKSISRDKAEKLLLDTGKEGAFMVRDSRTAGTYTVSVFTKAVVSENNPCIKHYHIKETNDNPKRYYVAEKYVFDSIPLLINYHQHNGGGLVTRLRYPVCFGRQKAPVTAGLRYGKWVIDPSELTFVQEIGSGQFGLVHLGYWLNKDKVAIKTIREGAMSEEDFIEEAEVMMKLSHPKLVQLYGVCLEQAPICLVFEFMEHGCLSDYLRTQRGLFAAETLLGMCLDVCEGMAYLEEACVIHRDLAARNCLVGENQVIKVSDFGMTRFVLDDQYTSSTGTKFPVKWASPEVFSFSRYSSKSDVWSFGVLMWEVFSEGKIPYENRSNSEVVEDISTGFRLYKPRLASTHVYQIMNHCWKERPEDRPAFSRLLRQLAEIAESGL"}, "[18]": {"biological_target": "PAK6 (human) (UniProt Q9NQU5)"}, "[19]": {"biological_target": "GSK3B (human) (UniProt P49841)", "sequence (P49841 whole entry, looked up)": "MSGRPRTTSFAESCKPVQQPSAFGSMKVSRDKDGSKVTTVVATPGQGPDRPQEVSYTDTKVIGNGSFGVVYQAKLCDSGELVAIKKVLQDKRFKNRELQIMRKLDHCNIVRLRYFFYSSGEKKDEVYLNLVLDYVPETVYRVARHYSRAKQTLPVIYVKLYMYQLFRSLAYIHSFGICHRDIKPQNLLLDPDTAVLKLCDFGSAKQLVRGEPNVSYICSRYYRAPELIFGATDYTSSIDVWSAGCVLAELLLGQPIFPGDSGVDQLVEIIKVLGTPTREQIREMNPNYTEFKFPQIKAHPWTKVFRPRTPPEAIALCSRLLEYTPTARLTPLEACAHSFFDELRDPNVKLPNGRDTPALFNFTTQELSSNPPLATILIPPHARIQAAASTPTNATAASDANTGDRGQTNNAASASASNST"}, "[20]": {"biological_target": "NTRK1 (human) (UniProt P04629)"}, "[21]": {"biological_target": "CDKL5 (human) (UniProt O76039)"}, "[22]": {"biological_target": "PAK1 (human) (UniProt Q13153)"}, "[23]": {"biological_target": "LATS2 (human) (UniProt Q9NRM7)"}, "[24]": {"biological_target": "CAMK2G (human) (UniProt Q13555)"}, "[25]": {"test_system": "RET (human), P07949 [M918T]", "sequence (P07949 whole entry M918T, looked up)": "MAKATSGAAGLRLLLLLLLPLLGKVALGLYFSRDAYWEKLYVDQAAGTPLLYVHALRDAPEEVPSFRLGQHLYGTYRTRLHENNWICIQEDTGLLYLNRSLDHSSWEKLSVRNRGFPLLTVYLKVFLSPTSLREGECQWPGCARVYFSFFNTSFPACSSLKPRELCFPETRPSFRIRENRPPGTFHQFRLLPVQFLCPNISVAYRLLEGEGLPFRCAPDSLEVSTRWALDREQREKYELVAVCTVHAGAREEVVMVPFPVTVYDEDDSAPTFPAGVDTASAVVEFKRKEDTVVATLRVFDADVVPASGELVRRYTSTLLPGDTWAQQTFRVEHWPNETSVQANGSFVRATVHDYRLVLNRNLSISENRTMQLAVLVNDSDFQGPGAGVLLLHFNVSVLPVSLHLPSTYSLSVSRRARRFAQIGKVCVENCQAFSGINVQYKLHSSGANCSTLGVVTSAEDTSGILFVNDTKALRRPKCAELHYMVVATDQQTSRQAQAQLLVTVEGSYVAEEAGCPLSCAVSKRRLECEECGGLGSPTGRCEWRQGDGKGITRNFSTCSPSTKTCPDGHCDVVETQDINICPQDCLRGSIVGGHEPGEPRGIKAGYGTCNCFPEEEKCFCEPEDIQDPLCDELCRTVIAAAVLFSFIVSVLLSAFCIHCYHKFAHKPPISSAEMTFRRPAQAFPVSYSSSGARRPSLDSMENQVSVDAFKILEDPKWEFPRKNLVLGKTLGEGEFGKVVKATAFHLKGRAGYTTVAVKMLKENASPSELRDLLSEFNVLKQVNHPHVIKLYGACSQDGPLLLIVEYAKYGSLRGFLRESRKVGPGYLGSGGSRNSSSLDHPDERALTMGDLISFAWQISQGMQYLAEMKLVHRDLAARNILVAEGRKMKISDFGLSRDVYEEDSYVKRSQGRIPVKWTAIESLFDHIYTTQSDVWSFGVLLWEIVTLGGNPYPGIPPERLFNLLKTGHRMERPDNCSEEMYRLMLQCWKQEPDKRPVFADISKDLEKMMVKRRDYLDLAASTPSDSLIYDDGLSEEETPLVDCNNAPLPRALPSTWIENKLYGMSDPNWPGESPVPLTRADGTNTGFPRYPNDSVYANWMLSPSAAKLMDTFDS"}, "[26]": {"biological_target": "JAK3 JH1 catalytic (human) (UniProt P52333)"}, "[27]": {"test_system": "MET (human), P08581 [Y1235D]"}, "[28]": {"biological_target": "EPHA2 (human) (UniProt P29317)"}, "[29]": {"biological_target": "CSNK1A1L (human) (UniProt Q8N752)"}, "[30]": {"biological_target": "CSNK1D (human) (UniProt P48730)"}, "[31]": {"biological_target": "FER (human) (UniProt P16591)"}, "[32]": {"biological_target": "MYO3A (human) (UniProt Q8NEV4)"}, "[33]": {"biological_target": "CAMK2B (human) (UniProt Q13554)", "sequence (Q13554 whole entry, looked up)": "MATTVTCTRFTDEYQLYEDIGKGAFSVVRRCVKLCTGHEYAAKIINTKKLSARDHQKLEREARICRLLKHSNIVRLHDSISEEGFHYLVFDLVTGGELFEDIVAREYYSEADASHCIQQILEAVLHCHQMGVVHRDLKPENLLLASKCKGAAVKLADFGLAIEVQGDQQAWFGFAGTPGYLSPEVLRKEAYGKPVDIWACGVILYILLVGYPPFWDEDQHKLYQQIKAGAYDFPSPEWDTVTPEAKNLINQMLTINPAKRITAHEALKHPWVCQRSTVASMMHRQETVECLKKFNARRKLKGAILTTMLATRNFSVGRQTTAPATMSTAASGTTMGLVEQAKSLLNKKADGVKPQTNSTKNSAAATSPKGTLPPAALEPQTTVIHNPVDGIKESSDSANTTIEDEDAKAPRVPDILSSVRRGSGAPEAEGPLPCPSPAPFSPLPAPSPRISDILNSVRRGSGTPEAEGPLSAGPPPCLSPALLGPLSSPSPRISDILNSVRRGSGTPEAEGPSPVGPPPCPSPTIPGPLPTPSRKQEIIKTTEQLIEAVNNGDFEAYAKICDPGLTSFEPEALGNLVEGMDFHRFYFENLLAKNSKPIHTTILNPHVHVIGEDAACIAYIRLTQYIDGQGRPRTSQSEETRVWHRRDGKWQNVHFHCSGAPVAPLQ"}, "[34]": {"biological_target": "MUSK (human) (UniProt O15146)"}, "[35]": {"biological_target": "SNRK (human) (UniProt Q9NRH2)"}, "[36]": {"biological_target": "TNNI3K (human) (UniProt Q59H18)"}, "[37]": {"biological_target": "PRKG1 (human) (UniProt Q13976)", "sequence (Q13976 whole entry, looked up)": "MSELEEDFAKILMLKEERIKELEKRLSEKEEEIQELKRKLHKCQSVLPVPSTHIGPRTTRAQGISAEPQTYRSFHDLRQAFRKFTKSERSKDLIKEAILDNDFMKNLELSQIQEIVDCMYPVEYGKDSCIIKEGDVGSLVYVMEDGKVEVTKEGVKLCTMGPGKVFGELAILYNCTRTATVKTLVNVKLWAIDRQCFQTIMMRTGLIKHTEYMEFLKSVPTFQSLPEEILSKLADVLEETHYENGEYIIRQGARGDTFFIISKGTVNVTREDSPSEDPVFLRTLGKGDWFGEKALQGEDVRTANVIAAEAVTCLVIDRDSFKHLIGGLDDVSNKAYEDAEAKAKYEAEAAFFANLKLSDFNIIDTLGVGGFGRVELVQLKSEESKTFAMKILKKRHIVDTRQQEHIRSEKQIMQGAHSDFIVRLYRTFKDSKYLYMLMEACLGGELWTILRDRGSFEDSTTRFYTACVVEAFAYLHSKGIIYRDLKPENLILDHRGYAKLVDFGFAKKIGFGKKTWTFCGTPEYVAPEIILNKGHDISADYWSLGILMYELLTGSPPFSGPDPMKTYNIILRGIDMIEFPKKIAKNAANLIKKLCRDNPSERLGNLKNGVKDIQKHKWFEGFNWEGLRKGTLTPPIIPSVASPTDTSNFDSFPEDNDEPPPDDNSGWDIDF"}, "[38]": {"biological_target": "EPHB3 (human) (UniProt P54753)"}, "[39]": {"biological_target": "DYRK1A (human) (UniProt Q13627)"}, "[40]": {"biological_target": "FGR (human) (UniProt P09769)", "sequence (P09769 whole entry, looked up)": "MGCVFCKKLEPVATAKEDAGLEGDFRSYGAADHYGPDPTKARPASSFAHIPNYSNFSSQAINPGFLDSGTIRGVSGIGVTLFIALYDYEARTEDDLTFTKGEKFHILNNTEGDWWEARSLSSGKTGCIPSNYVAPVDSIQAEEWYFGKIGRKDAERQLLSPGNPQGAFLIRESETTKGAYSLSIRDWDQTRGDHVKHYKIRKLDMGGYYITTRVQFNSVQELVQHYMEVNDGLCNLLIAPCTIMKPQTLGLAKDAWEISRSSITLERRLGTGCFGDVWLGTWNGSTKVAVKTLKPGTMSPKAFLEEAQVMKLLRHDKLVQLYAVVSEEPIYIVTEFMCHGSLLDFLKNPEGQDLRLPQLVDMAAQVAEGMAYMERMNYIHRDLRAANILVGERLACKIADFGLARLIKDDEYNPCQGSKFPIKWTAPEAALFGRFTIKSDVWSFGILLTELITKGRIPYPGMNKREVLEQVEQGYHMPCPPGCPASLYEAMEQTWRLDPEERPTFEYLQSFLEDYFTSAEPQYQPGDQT"}, "[41]": {"biological_target": "TLK2 (human) (UniProt Q86UE8)"}, "[42]": {"biological_target": "ACVR1 (human) (UniProt Q04771)"}, "[43]": {"biological_target": "MYLK2 (human) (UniProt Q9H1R3)"}}, "data": [{"smiles": "COCCNCCCn1c(C(=O)CF)c(-c2ccc(C)cc2)c2c(N)ncnc21", "values": [{"measurement": "kinase still bound, per cent of control", "setting": "[1]", "result": 100, "unit": "%"}, {"measurement": "kinase still bound, per cent of control", "setting": "[2]", "result": 100, "unit": "%"}, {"measurement": "kinase still bound, per cent of control", "setting": "[3]", "result": 95, "unit": "%"}, {"measurement": "kinase still bound, per cent of control", "setting": "[4]", "result": 87, "unit": "%"}, {"measurement": "kinase still bound, per cent of control", "setting": "[5]", "result": 100, "unit": "%"}, {"measurement": "kinase still bound, per cent of control", "setting": "[6]", "result": 100, "unit": "%"}, {"measurement": "kinase still bound, per cent of control", "setting": "[7]", "result": 79, "unit": "%"}, {"measurement": "kinase still bound, per cent of control", "setting": "[8]", "result": 85, "unit": "%"}, {"measurement": "kinase still bound, per cent of control", "setting": "[9]", "result": 92, "unit": "%"}, {"measurement": "kinase still bound, per cent of control", "setting": "[10]", "result": 94, "unit": "%"}, {"measurement": "kinase still bound, per cent of control", "setting": "[11]", "result": 71, "unit": "%"}, {"measurement": "kinase still bound, per cent of control", "setting": "[12]", "result": 92, "unit": "%"}, {"measurement": "kinase still bound, per cent of control", "setting": "[13]", "result": 91, "unit": "%"}, {"measurement": "kinase still bound, per cent of control", "setting": "[14]", "result": 90, "unit": "%"}, {"measurement": "kinase still bound, per cent of control", "setting": "[15]", "result": 89, "unit": "%"}, {"measurement": "kinase still bound, per cent of control", "setting": "[16]", "result": 95, "unit": "%"}, {"measurement": "kinase still bound, per cent of control", "setting": "[17]", "result": 100, "unit": "%"}, {"measurement": "kinase still bound, per cent of control", "setting": "[18]", "result": 93, "unit": "%"}, {"measurement": "kinase still bound, per cent of control", "setting": "[19]", "result": 100, "unit": "%"}, {"measurement": "kinase still bound, per cent of control", "setting": "[20]", "result": 82, "unit": "%"}, {"measurement": "kinase still bound, per cent of control", "setting": "[21]", "result": 100, "unit": "%"}, {"measurement": "kinase still bound, per cent of control", "setting": "[22]", "result": 89, "unit": "%"}, {"measurement": "kinase still bound, per cent of control", "setting": "[23]", "result": 100, "unit": "%"}, {"measurement": "kinase still bound, per cent of control", "setting": "[24]", "result": 100, "unit": "%"}, {"measurement": "kinase still bound, per cent of control", "setting": "[25]", "result": 100, "unit": "%"}, {"measurement": "kinase still bound, per cent of control", "setting": "[26]", "result": 100, "unit": "%"}, {"measurement": "kinase still bound, per cent of control", "setting": "[27]", "result": 81, "unit": "%"}, {"measurement": "kinase still bound, per cent of control", "setting": "[28]", "result": 100, "unit": "%"}, {"measurement": "kinase still bound, per cent of control", "setting": "[29]", "result": 100, "unit": "%"}, {"measurement": "kinase still bound, per cent of control", "setting": "[30]", "result": 82, "unit": "%"}, {"measurement": "kinase still bound, per cent of control", "setting": "[31]", "result": 84, "unit": "%"}, {"measurement": "kinase still bound, per cent of control", "setting": "[32]", "result": 100, "unit": "%"}, {"measurement": "kinase still bound, per cent of control", "setting": "[33]", "result": 97, "unit": "%"}, {"measurement": "kinase still bound, per cent of control", "setting": "[34]", "result": 100, "unit": "%"}, {"measurement": "kinase still bound, per cent of control", "setting": "[35]", "result": 99, "unit": "%"}, {"measurement": "kinase still bound, per cent of control", "setting": "[36]", "result": 89, "unit": "%"}, {"measurement": "kinase still bound, per cent of control", "setting": "[37]", "result": 100, "unit": "%"}, {"measurement": "kinase still bound, per cent of control", "setting": "[38]", "result": 100, "unit": "%"}, {"measurement": "kinase still bound, per cent of control", "setting": "[39]", "result": 100, "unit": "%"}, {"measurement": "kinase still bound, per cent of control", "setting": "[40]", "result": 93, "unit": "%"}, {"measurement": "kinase still bound, per cent of control", "setting": "[41]", "result": 95, "unit": "%"}, {"measurement": "kinase still bound, per cent of control", "setting": "[42]", "result": 100, "unit": "%"}, {"measurement": "kinase still bound, per cent of control", "setting": "[43]", "result": 95, "unit": "%"}]}]}
